Laboratory results published in patent US10513521B2, “Compositions and methods for inhibiting BMP” (The Brigham and Women's Hospital, Inc., priority 2014, dated 2019).
Where “and” joins values, the source holds several entries; their conditions need not be identical. Equal values may be shown once.

Legend:
ALK4 = target: T1, ALK4 (Homo sapiens, UniProt P36896); assay: TR-FRET enzymatic ALK kinase assay, ALK4
T1 sequence (P36896 24-505): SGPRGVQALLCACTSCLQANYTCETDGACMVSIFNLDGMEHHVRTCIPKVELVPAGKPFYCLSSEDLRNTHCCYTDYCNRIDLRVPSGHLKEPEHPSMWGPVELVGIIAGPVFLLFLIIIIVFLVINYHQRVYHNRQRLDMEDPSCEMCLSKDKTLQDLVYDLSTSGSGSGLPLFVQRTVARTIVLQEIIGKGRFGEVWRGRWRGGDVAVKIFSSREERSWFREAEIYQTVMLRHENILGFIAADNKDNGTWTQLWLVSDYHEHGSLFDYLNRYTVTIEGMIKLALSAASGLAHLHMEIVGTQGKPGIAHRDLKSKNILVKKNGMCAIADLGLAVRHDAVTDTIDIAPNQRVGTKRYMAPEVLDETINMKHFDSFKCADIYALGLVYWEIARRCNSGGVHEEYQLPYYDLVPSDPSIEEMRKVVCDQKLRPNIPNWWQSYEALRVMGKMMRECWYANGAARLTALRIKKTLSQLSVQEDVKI
Procedure: (§1) Briefly, the ALKs enzymatic assay was initiated by dispense 2.5 μl enzyme in 1× kinase reaction buffer. The assay plate was then added with compounds followed by incubation at room temperature for 10 minutes. Then 2.5 μl/well substrate was added.

ALK6 = ALK6 (Homo sapiens, UniProt O00238); assay: TR-FRET enzymatic ALK kinase assay, ALK6
Procedure: as §1

ALK1 [1] = target: T2, ALK1 (Bos taurus, UniProt A4FUX2); assay: In-cell Western ALK1 assay (BAOEC cells, BMP9 as agonist); format: cell-based, Bovine; details: read-out: BMP9 ICW
T2 construct: The BAOEC cell line was employed for the measurement of ALK1 activity using BMP9 as the agonist; host or cells: BAOEC (bovine aortic endothelial cells)
T2 sequence (A4FUX2 23-503): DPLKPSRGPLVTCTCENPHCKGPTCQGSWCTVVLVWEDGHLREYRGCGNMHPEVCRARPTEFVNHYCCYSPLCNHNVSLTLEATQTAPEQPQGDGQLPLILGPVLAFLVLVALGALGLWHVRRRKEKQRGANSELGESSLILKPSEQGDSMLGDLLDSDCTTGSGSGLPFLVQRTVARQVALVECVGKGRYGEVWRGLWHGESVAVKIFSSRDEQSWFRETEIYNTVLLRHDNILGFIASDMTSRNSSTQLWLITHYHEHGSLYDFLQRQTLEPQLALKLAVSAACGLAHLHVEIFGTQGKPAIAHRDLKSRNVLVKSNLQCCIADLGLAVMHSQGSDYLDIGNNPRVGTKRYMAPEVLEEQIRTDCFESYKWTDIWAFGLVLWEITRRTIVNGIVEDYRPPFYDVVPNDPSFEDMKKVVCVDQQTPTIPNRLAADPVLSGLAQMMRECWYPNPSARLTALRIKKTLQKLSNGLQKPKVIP
Description: 3. In-Cell Western ALK1 and ALK2 Assays in 384-Well Plate Format.
We also optimized cell-based In-cell Western assays for measurements of ALK1 and ALK2 activities that were used to determine compound activities in these two kinases. The cell lines and agonists used were same as described in above cell-based HTRF ALK1 and ALK2 assays. The initial cell plating and compound treatment were also same. The main difference is the detection of phosphorylation status of SMAD1. In t-cell Western assay, the cells were fixed and phosphorylation status of SMAD1 was detected by the ELISA instead of using the HTRF assay kit in above assay.
C2C12 cells and RPMI 1640 medium were obtained from ATCC (Manassas, Va.) and Bovine Aortic endothelial Cells (BAOEC) and epithelial defined growth medium were purchased from Genlantis (San Deigo, Calif.). HyClone Fetal Bovine Serum was obtained from GE healthcare life sciences (Logan, Utah). BMP6 and BMP9 were purchased from R&D System (R&D). Anti-P-SMAD 1/5/8 rabbit mAb and anti-rabbit IgG, HRP-Linked antibody were purchased from Cell Signaling Technology (Danvers, Mass.). BioFX Chemiluminescent Ultra-Sensitive HRP Microwell Substrate ECL Reagent was obtained from SurModics (Edina, Minn.). The compound plates and the white solid MB assay plates were from Greiner Bio-one (Monroe, N.C.).
Similarly as described in above HTRF cell-based assay, this assay was performed in 384 well plate format. C2C12 were grown in T225 flasks were sterilely washed with 1×PBS pre-starved with medium containing 0.1% FBS for 20 hours. Pre-starved cells were then plated in 384 well plate in the starvation medium (containing in 0.1% FBS). After 4 hours, compound dilutions in DMSO were added to the assay plate and incubated for 30 minutes. The assay plate was then added with BMP6 for C2C12 cells or BMP9 for BAOEC cells and incubated for 30 minutes.
Cells were fixed with 50 ul ice-cold methanol and incubated for 15 min after removing the supernatant. The methanol was removed and filled with 0.5% glutaraldehyde and incubated at room temperature for 15 min. The cells were washed in the plate washer with PBS and blocked with 2% BSA in PBS for 1 h at room temperature on the rotator. After removing the blocking reagent, the cells were incubated with the anti-p-SMAD1 antibody in 2% BSA in PBS for overnight at 4° C. on rotator. The cells were washed with PBS in the plate washer and incubated with HRP conjugated second antibody in 2% BSA in PBS for 1 hour at room temperature. After a cell wash with PBS, ECL detection reagent was added and the plate was read in the luminesce mode in the ViewLux plate reader.

ALK1 [2] = target: T2, ALK1; assay: HTRF pSMAD1 cell-based ALK1 assay (BAOEC cells, BMP9 as agonist); parameters: species or system Bovine
Procedure: 2. HTRF Cell-Based ALK1 and ALK2 Assays in 384-Well Plate Format We have developed a cell based ALK1 kinase assay and a cell-based ALK2 assay. The BAOEC cell line was employed for the measurement of ALK1 activity using BMP9 as the agonist. The C2C12 cell line was selected for the measurement of ALK2 activity using BMP6 as the agonist. The kinase specificity was defined by the specific cell line and agonist. The kinase activity was determined by the status of SMD 1/5/8 phosphorylation stimulated by the agonist.
HyClone Fetal Bovine Serum was obtained from GE healthcare life sciences (Logan, Utah). BMP6 and BMP9 were purchased from R&D System. […] The compound plates and the white solid MB assay plates were purchased from Greiner Bio-one (Monroe, N.C.).
HTRF optimization experiments were performed in 384 well plate format. […] Pre-starved cells were then plated in 384 well plate in the starvation medium (containing in 0.1% FBS). After 4 hours, compounds were added to the assay plate and incubated for 30 minutes. The assay plate was then added with BMP6 for C2C12 cells or BMP9 for BAOEC cells and incubated for 30 minutes.
HTRF assay was performed to measure the status of SMAD 1 phosphorylation after stimulated with the agonist (Table 3). This HTRF phospho SMAD1 cell assay was developed and optimized for the homogenous detection of phospho SMAD 1 levels in cells. […] The plate was incubated at room temperature for overnight.

ALK1 [3] = target: ALK1 (Homo sapiens, UniProt P37023); assay: TR-FRET enzymatic ALK kinase assay, ALK1
Procedure: as §1

BMP4 = BMP4 HTRF assay; format: cell-based

ALK1 (Homo sapiens, UniProt P37023), sequence (P37023 22-503): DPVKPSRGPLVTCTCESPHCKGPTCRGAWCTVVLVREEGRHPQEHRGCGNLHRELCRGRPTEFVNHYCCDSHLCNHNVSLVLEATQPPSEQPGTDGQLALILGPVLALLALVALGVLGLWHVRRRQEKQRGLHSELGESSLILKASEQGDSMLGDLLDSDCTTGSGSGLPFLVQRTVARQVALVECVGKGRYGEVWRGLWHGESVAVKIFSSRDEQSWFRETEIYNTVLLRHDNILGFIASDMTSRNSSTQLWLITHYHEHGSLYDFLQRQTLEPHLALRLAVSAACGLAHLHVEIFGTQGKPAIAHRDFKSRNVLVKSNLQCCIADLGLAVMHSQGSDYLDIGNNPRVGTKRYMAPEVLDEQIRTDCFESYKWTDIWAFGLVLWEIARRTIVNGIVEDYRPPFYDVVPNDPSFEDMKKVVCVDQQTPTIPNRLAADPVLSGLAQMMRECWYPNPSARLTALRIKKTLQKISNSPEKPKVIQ
ALK6, sequence (O00238 14-502): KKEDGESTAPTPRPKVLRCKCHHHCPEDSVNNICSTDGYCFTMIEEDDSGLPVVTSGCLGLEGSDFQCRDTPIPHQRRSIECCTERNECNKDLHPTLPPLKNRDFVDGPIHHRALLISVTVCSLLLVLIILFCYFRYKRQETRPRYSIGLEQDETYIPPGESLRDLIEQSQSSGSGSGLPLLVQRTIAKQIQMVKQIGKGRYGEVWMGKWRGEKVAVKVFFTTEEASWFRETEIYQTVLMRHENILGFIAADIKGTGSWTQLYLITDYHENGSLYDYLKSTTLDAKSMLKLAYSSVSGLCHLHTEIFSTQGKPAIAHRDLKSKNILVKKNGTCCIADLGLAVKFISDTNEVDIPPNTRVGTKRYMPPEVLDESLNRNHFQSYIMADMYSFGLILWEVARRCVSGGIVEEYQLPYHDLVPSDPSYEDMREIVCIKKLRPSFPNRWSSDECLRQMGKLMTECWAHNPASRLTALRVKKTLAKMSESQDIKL

Row | SMILES | IC50 (ALK4) | IC50 (ALK6) | IC50 (ALK1 [1]) | IC50 (ALK1 [2]) | IC50 (ALK1 [3]) | IC50 (BMP4)
1 | C[C@@H]1CNC[C@H](C)N1c1ccc(-c2cnc3c(-c4cccc5c(C(N)=O)cccc45)cnn3c2)cc1 [Compound 10, 5-(6-(4-((2S,6R)-2,6-dimethylpiperazin-1-yl)phenyl)pyrazolo[1,5-a]pyrimidin-3-yl)-1-naphthamide] | 1.07 µM | 0.034 µM | 0.042 µM and 0.053 µM and 0.066 µM and 0.078 µM and 0.091 µM and 0.028 µM and 0.049 µM and 0.051 µM | 0.044 µM and 0.02 µM | 0.005 µM | 0.14 µM
2 | N/C(=N/O)c1ccc(-c2cnn3cc(-c4ccc(N5CCNCC5)cc4)cnc23)c2ccccc12 [Compound 15, N′-hydroxy-4-(6-(4-(piperazin-1-yl)phenyl)pyrazolo[1,5-a]pyrimidin-3-yl)-1-naphthimidamide] | 30.4 µM | 12.8 µM | 1.5 µM | – | 1.48 µM | –
3 | CC(C)(CN1CCCCC1)Oc1ccc(-c2cnc3c(-c4cccc5c(C(N)=O)cccc45)cnn3c2)cc1 [Compound 18, 5-(6-(4-((2-methyl-1-(piperidin-1-yl)propan-2-yl)oxy)phenyl)pyrazolo[1,5-a]pyrimidin-3-yl)-1-naphthamide] | 2.34 µM | 0.183 µM | 0.026 µM | – | 0.016 µM | –
4 | NS(=O)(=O)c1ccc(-c2cnn3cc(-c4ccc(CCN5CCCCC5)cc4)cnc23)c2ccccc12 [Compound 54, 4-(6-(4-(2-(piperidin-1-yl)ethyl)phenyl)pyrazolo[1,5-a]pyrimidin-3-yl)naphthalene-1-sulfonamide] | > 10 µM | > 10 µM | – | – | 0.38 µM | –
5 | C[C@@H]1CNC[C@H](C)N1c1ccc(-c2cnc3c(-c4cccc(S(C)(=O)=O)c4)cnn3c2)cc1 [Compound 82, 6-(4-((2R,6S)-2,6-dimethylpiperazin-1-yl)phenyl)-3-(3-(methylsulfonyl)phenyl)pyrazolo[1,5-a]pyrimidine] | 3.2 µM | 7.9 µM | 1.5 µM (2×) and 1 µM and 1.3 µM and 1.8 µM and 360 nM and 960 nM and 2 µM | 0.19 µM | 0.03 µM | 0.18 µM
6 | CC(O)c1cccc(-c2cnn3cc(-c4ccc(N5[C@H](C)CNC[C@@H]5C)cc4)cnc23)c1 (stereo partly drawn) [Compound 83, 1-(3-(6-(4-((2R,6S)-2,6-dimethylpiperazin-1-yl)phenyl)pyrazolo[5-a]pyrimidin-3-yl)phenyl)ethanol] | 4.4 µM | 5.4 µM | 1.4 µM and 1.2 µM and 1.5 µM and 1.8 µM and 2.6 µM and 0.69 µM and 0.77 µM and 1.6 µM | 0.1 µM | 0.057 µM | –
7 | CS(=O)(=O)c1cccc(-c2cnn3cc(-c4ccc(OCCN5CCCC5)cc4)cnc23)c1 [Compound 108, 3-(3-(methylsulfonyl)phenyl)-6-(4-(2-(pyrrolidin-1-yl)ethoxy)phenyl)pyrazolo[1,5-a]pyrimidine] | > 10 µM | > 10 µM | 3.9 µM | – | 0.39 µM | –
8 | C[S+](=O)([O-])c1cccc(-c2cnn3cc(-c4ccc(OCCN5CCCCC5)cc4)cnc23)c1 [Compound 109] | > 10 µM | > 10 µM | – | – | 0.39 µM | –
9 | C[C@@H]1CNC[C@H](C)N1c1ccc(-c2cnc3c(-c4cccc([S+](=O)([O-])C5CC5)c4)cnn3c2)cc1 [Compound 111, 3-(3-(cyclopropylsulfonyl)phenyl)-6-(4-((2R,6S)-2,6-dimethylpiperazin-1-yl)phenyl)pyrazolo[1,5-a]pyrimidine] | 6.5 µM | > 10 µM | 1.8 µM | 0.85 µM | 0.12 µM | –
10 | CC(C)S(=O)(=O)c1cccc(-c2cnn3cc(-c4ccc(CCN5CCCCC5)cc4)cnc23)c1 [Compound 113, 3-(3-(isopropylsulfonyl)phenyl)-6-(4-(2-(piperidin-1-yl)ethyl)phenyl)pyrazolo[1,5-a]pyrimidine] | > 10 µM | 9.2 µM | – | – | 0.5 µM | –
11 | CC(C)S(=O)(=O)c1cccc(-c2cnn3cc(-c4ccc(N5[C@H](C)CNC[C@@H]5C)cc4)cnc23)c1 [Compound 114, 6-(4-((2R,6S)-2,6-dimethylpiperazin-1-yl)phenyl)-3-(3-(isopropylsulfonyl)phenyl)pyrazolo[1,5-a]pyrimidine] | 4.1 µM | 6.3 µM | – | – | 0.067 µM | –
12 | CC1(c2ccc(-c3cnc4c(-c5cccc(S(C)(=O)=O)c5)cnn4c3)cc2)CCNCC1 [Compound 115, 6-(4-(4-methylpiperidin-4-yl)phenyl)-3-(3-(methylsulfonyl)phenyl)pyrazolo[1,5-a]pyrimidine] | 9.1 µM | 9 µM | 1.5 µM | – | 0.11 µM | –
13 | C[C@@H]1CNC[C@H](C)N1c1ccc(-c2cnc3c(-c4cccc(C[S+](C)(=O)[O-])c4)cnn3c2)cc1 [Compound 117, 6-(4-((2R,6S)-2,6-dimethylpiperazin-1-yl)phenyl)-3-(3-((methylsulfonyl)methyl)phenyl)pyrazolo[1,5-a]pyrimidine] | 8.5 µM | 8.7 µM | 2.4 µM | – | 0.2 µM | –
14 | CS(=O)(=O)c1cccc(-c2cnn3cc(-c4ccc(CN5CCCCC5)cc4)cnc23)c1 [Compound 123, 3-(3-(methylsulfonyl)phenyl)-6-(4-(piperidin-1-ylmethyl)phenyl)pyrazolo[1,5-a]pyrimidine] | > 10 µM | > 10 µM | – | – | 0.21 µM | –
15 | CC(O)c1cccc(-c2cnn3cc(-c4ccc(OC5(CN6CCCCC6)CC5)cc4)cnc23)c1 (stereo not drawn) [Compound 143, 1-(3-(6-(4-(1-(piperidin-1-ylmethyl)cyclopropoxy)phenyl)pyrazolo[1,5-a]pyrimidin-3-yl)phenyl)ethanol] | > 10 µM | 9.6 µM | – | – | 0.33 µM | –
